{
  "source": "ChEMBL document CHEMBL1687804",
  "about": "“Comparative efficacies of human simulated exposures of telavancin and vancomycin against methicillin-resistant Staphylococcus aureus with a range of vancomycin MICs in a murine pneumonia model” (Antimicrob Agents Chemother, 2010)",
  "key": {"Staphylococcus aureus [1]": {"test_system": "Staphylococcus aureus", "test": "Antibacterial activity against hospital-associated methicillin-resistant Staphylococcus aureus isolate 336 infected in neutropenic BALB/c mouse lung infection model assessed as reduction of CFU at 110 mg/kg, ip administered every 12 hrs measured after 24 hrs", "type": "functional, organism-based", "set-up": "dose 110 mg/kg"}, "Staphylococcus aureus [2]": {"test_system": "Staphylococcus aureus", "test": "Antibacterial activity against hospital-associated methicillin-resistant Staphylococcus aureus isolate 56 (494) infected in neutropenic BALB/c mouse lung infection model assessed as reduction of CFU at 110 mg/kg, ip administered every 12 hrs measured after 24 hrs", "type": "functional, organism-based", "set-up": "dose 110 mg/kg"}, "Staphylococcus aureus [3]": {"test_system": "Staphylococcus aureus", "test": "Antibacterial activity against hospital-associated methicillin-resistant Staphylococcus aureus isolate 412 infected in neutropenic BALB/c mouse lung infection model assessed as reduction of CFU at 110 mg/kg, ip administered every 12 hrs measured after 24 hrs", "type": "functional, organism-based", "set-up": "dose 110 mg/kg"}, "Staphylococcus aureus [4]": {"test_system": "Staphylococcus aureus", "test": "Antibacterial activity against vancomycin-intermediate Staphylococcus aureus isolate 440 (A6298) infected in neutropenic BALB/c mouse lung infection model assessed as reduction of CFU at 110 mg/kg, ip administered every 12 hrs measured after 24 hrs", "type": "functional, organism-based", "set-up": "dose 110 mg/kg"}, "Staphylococcus aureus [5]": {"test_system": "Staphylococcus aureus", "test": "Antibacterial activity against vancomycin-intermediate Staphylococcus aureus isolate 435 infected in neutropenic BALB/c mouse lung infection model assessed as reduction of CFU at 110 mg/kg, ip administered every 12 hrs measured after 24 hrs", "type": "functional, organism-based", "set-up": "dose 110 mg/kg"}, "[6]": {"test": "AUC (0 to 12 hrs) in BALB/c mouse at 110 mg/kg, sc", "conditions": "plasma"}, "Staphylococcus aureus [7]": {"test_system": "Staphylococcus aureus", "test": "Antibacterial activity against hospital-associated methicillin-resistant Staphylococcus aureus isolate 152 infected in neutropenic BALB/c mouse lung infection model assessed as reduction of CFU at 110 mg/kg, ip administered every 12 hrs measured after 24 hrs", "type": "functional, organism-based", "set-up": "dose 110 mg/kg"}, "Homo sapiens": {"test_system": "Homo sapiens", "test": "fAUC in human at 1 gram administered every 12 hrs", "type": "ADME, organism-based", "conditions": "in vivo"}, "Staphylococcus aureus [8]": {"test_system": "Staphylococcus aureus", "test": "Antibacterial activity against community-associated methicillin-resistant Staphylococcus aureus isolate 145 infected in neutropenic BALB/c mouse lung infection model assessed as reduction of CFU at 110 mg/kg, ip administered every 12 hrs measured after 24 hrs", "type": "functional, organism-based", "set-up": "dose 110 mg/kg"}, "Mus musculus": {"test_system": "Mus musculus", "test": "fAUC in BALB/c mouse at 110 mg/kg, sc administered every 12 hrs", "conditions": "in vivo"}, "Staphylococcus aureus [9]": {"test_system": "Staphylococcus aureus", "test": "Antibacterial activity against vancomycin-heteroresistant Staphylococcus aureus isolate 38 (Mu3) infected in neutropenic BALB/c mouse lung infection model assessed as reduction of CFU at 110 mg/kg, ip administered every 12 hrs measured after 24 hrs", "type": "functional, organism-based", "set-up": "dose 110 mg/kg"}, "Staphylococcus aureus [10]": {"test_system": "Staphylococcus aureus", "test": "Antibacterial activity against vancomycin-intermediate Staphylococcus aureus isolate 454 (NRS404) infected in neutropenic BALB/c mouse lung infection model assessed as reduction of CFU at 110 mg/kg, ip administered every 12 hrs measured after 24 hrs", "type": "functional, organism-based", "set-up": "dose 110 mg/kg"}, "Staphylococcus aureus [11]": {"test_system": "Staphylococcus aureus", "test": "Antibacterial activity against community-associated methicillin-resistant Staphylococcus aureus isolate 156 infected in neutropenic BALB/c mouse lung infection model assessed as reduction of CFU at 110 mg/kg, ip administered every 12 hrs measured after 24 hrs", "type": "functional, organism-based", "set-up": "dose 110 mg/kg"}, "Staphylococcus aureus [12]": {"test_system": "Staphylococcus aureus", "test": "Antibacterial activity against vancomycin-heteroresistant Staphylococcus aureus isolate 443 infected in neutropenic BALB/c mouse lung infection model assessed as reduction of CFU at 110 mg/kg, ip administered every 12 hrs measured after 24 hrs", "type": "functional, organism-based", "set-up": "dose 110 mg/kg"}, "Staphylococcus aureus [13]": {"test_system": "Staphylococcus aureus", "test": "Antibacterial activity against vancomycin-intermediate Staphylococcus aureus isolate 453 (NRS23) infected in neutropenic BALB/c mouse lung infection model assessed as reduction of CFU at 110 mg/kg, ip administered every 12 hrs measured after 24 hrs", "type": "functional, organism-based", "set-up": "dose 110 mg/kg"}, "Staphylococcus aureus [14]": {"test_system": "Staphylococcus aureus", "test": "Antibacterial activity against hospital-associated methicillin-resistant Staphylococcus aureus isolate 360 infected in neutropenic BALB/c mouse lung infection model assessed as reduction of CFU at 110 mg/kg, ip administered every 12 hrs measured after 24 hrs", "type": "functional, organism-based", "set-up": "dose 110 mg/kg"}},
  "note": "Active and inactive are the calls of the source. No cut-off for these calls is given here.",
  "data": [
    {"smiles": "CN[C@H](CC(C)C)C(=O)N[C@H]1C(=O)N[C@@H](CC(N)=O)C(=O)N[C@H]2C(=O)N[C@H]3C(=O)N[C@H](C(=O)N[C@H](C(=O)O)c4cc(O)cc(O)c4-c4cc3ccc4O)[C@H](O)c3ccc(c(Cl)c3)Oc3cc2cc(c3O[C@@H]2O[C@H](CO)[C@@H](O)[C@H](O)[C@H]2O[C@H]2C[C@](C)(N)[C@H](O)[C@H](C)O2)Oc2ccc(cc2Cl)[C@H]1O", "note": "[VANCOMYCIN]", "values": [
      {"measurement": "Activity", "setting": "Staphylococcus aureus [1]", "value": "Active"},
      {"measurement": "Activity", "setting": "Staphylococcus aureus [2]", "value": "Active"},
      {"measurement": "Activity", "setting": "Staphylococcus aureus [3]", "value": "Active"},
      {"measurement": "Activity", "setting": "Staphylococcus aureus [4]", "value": "Active"},
      {"measurement": "Activity", "setting": "Staphylococcus aureus [5]", "value": "Active"},
      {"measurement": "AUC(0-t) at 12 h", "setting": "[6]", "value": 140, "unit": "µg·h/mL"},
      {"measurement": "Activity", "setting": "Staphylococcus aureus [7]", "value": "Active"},
      {"measurement": "fAUC", "setting": "Homo sapiens", "value": 208, "unit": "µg·h/mL"},
      {"measurement": "Activity", "setting": "Staphylococcus aureus [8]", "value": "Active"},
      {"measurement": "fAUC", "setting": "Mus musculus", "value": 196, "unit": "µg·h/mL"},
      {"measurement": "Activity", "setting": "Staphylococcus aureus [9]", "value": "Active"},
      {"measurement": "Activity", "setting": "Staphylococcus aureus [10]", "value": "Active"},
      {"measurement": "Activity", "setting": "Staphylococcus aureus [11]", "value": "Active"},
      {"measurement": "Activity", "setting": "Staphylococcus aureus [12]", "value": "Active"},
      {"measurement": "Activity", "setting": "Staphylococcus aureus [13]", "value": "Active"},
      {"measurement": "Activity", "setting": "Staphylococcus aureus [14]", "value": "Active"}
    ]}
  ]
}
